From patent US20250179024A1, “AMYLOID AND ASSOCIATED PATHOLOGY MODULATORS AND METHODS THEREOF” (Jawaharlal Nehru Centre for Advanced Scientific Research, priority 2022, published 2025)

Key:
[1] = molecular target: T1, Aβ fibrils (Homo sapiens, UniProt P05067); experiment: Dot blot assay of Aβ fibrillar aggregation inhibition (OC antibody); assay type: biochemical; settings: Aβ 10 μM; for inhibition of the formation of Aβ fibrils: NMIs 20 μM, PBS pH 7.4, 37° C., 48 h
T1 construct: is a 42 amino acid proteolytic product from the amyloid precursor protein; purchased Invitrogen
Experimental: Aggregation modulation by toxic Aβ aggregates were assessed and were quantified by dot blot assay. Aβ peptide (10 μM) was dissolved in phosphate buffered saline (PBS, 10 mM, pH 7.4), incubated alone and with NMIs (20 μM) at 37° C. for 48 h. For concentration dependent inhibition, 10 μM Aβ peptide was incubated with 1, 2, 5, 10 and 20 μM of NMIs and incubated. Samples for oligomer inhibition studies were prepared by incubating Aβ alone and with NMIs at 4° C. for 24 and subjected to dot blot analysis. For dissolution studies, Aβ peptide alone was incubated in PBS for 48 h to prepare fibrils and then incubated with NMIs further for 48 h. For dot blot experiment, 5 μL of sample was blotted on activated PVDF (polyvinylidene fluoride) membrane in triplicates and air dried. The membrane was blocked with skimmed milk powder for 1 h at room temperature. The blot paper was washed with tris-buffered saline with 0.01% Tween 20 (TBST) three times for 5 min. Blot paper was treated with fibril specific OC primary antibody (Rabbit, 1:1000 dilution) overnight at 4° C. For oligomers blot A11 anti-oligomer antibody (Rabbit 1:1000) was used. Blot was washed thrice with TBST and treated with HRP-conjugated antirabbit secondary antibody (1:5000 dilutions) for 1 h at room temperature. The bolt was washed thrice for 5 min with TBST and developed with ECL reagent (Biorad) and imaged with ChemiDoc BioRad gel documentation system in autoexposure mode. Blots were analyzed and quantified by ImageJ software. The ability of the NMIs, the compounds of the present disclosure M1-M4 to inhibit Aβ aggregation and dissolve the preformed fibrillar aggregates was evaluated by dot blot assay as explained in Example 2 above. Aβ (10 μM) was incubated alone and with NMIs (20 μM) in phosphate buffer saline (PBS, 10 mM and pH 7.4) at 37° C. for 48 h to form Aβ fibrillar aggregates. The samples were blotted and probed with fibril-selective OC antibody (rabbit anti-human amyloid fibrils). […] M3 was further assessed for inhibitory effect at lower concentrations. […] It has been observed that the oligomers are a highly toxic species compared to Aβ fibrillar aggregates. The ability of NMIs (M3) to inhibit the formation of Aβ oligomers was assessed by dot blot assay. Aβ peptide (10 μM) was incubated with NMIs at 4° C. for 24 h followed by probing with A11 oligomer-specific antibody. […] Native PAGE and western blot analysis was carried out to understand the size distribution of Aβ aggregated species. […] In order to analyse the higher order aggregates not permeable in the gel matrix and the morphological characteristics, Aβ samples were subjected to atomic force microscopy (AFM) imaging.

[2] = test system: SH-SY5Y cells; experiment: Mitochondrial membrane potential (MMP) measurement, Mitotracker Orange; assay type: cell-based; settings: Aβ 20 μM, 18 h; for MMP relative to control (100%): Aβ alone 70%
Experimental: For quantifying relative change in MMP, SH-SY5Y cells were seeded into 96 plates and incubated. After 24 h, cells were treated with Aβ (20 μM) alone and with two different concentrations of NMIs (M3) (20 and 50 μM) for 18 h and stained with Mitotracker Orange (500 nM) in media for 15 min followed by washing with PBS twice. Then quickly fluorescence was measured (λex=554 nm and λem=576 nm) by Spectramax multi-well plate reader in well scan mode (>80 points, with 6 flashes per read) and averaged the value. The relative fluorescence of treatments in comparison with control was calculated to assess the change in MMP.
For fluorescence imaging, cells were seeded into glass bottom dishes and incubated for 24 h. Then treated with Aβ (20 μM) alone and with NMIs (M3) (50 μM) in low serum media for 18 h and stained with Mitotracker Orange (500 nM) in media for 15 min. Cells were washed with PBS thrice and imaged in live cell set up in Rhodamine channel using 63× oil immersion using Leica DMi8 fluorescence microscope.
The compound M3 with aggregation modulation and antioxidant activity potentially prevent Aβ mediated mitochondrial damage. Quantitatively measurement of mitochondrial membrane potential (MMP) changes was carried out. SH-SY5Y cells were cultured in 96 well plate, treated with Aβ (20 μM) alone and with different concentrations of M3 (20 μM and 50 μM) for 18 h and relative MMP was measured using MitoOrange fluorescence, a MMP-dependent mitochondrial probe. MMP of Aβ treated cells dropped to 70% compared to control (100%) reflecting the functional damage to mitochondria. Upon treatment with M3 at two concentrations 20 μM and 50 µM, MMP was improved to 88% and 93%, respectively, which indicated prevention of mitochondrial damage (FIG. 14A).
(§1) Changes in MMP were visualized by treating the cells with Aβ (20 μM) alone and with M3 (50 μM) for 18 h followed by staining with MitoOrange. […] The ability of M3 to modulate Aβ-induced ROS levels in mitochondria was evaluated by the MitoSOX probe. […]

[3] = test system: SH-SY5Y cells; experiment: Mitochondrial ROS measurement, MitoSOX; assay type: cell-based; settings: Aβ 40 μM, 8 h, Aβ alone 1.76 fold
Experimental: For quantifying mitochondrial ROS levels, SH-SY5Y cells were seeded into 96 well plates and incubated. After 24 h cells were treated with Aβ (20 μM) alone and with two different concentrations of NMIs (M3) (20 and 50 μM) for 8 h and stained with MitoSox Red (5 μM) in PBS for 15 min followed by a wash with PBS thrice. Then quickly fluorescence was measured (λex=510 nm and λem=580 nm) by Spectramax multi-well plate reader in well scan mode (>80 points, with 6 flashes per read). The relative fluorescence was used to assess ROS levels with respect to control. For ROS imaging, cells were seeded onto glass bottom dishes and incubated for 24 h. Cells were treated with Aβ (20 μM) and with NMIs (M3) (50 μM) in low serum media for 8 h. Then the cells were washed with PBS and stained with MitoSOX (5 μM) prepared in PBS and incubated. After 15 min, wash thrice with PBS and imaged in live cell set up in rhodamine channel using 63× oil immersion using Leica DMi8 fluorescence microscope.
as §1, with “probe. The cells were treated with Aβ (40 μM) alone and with two concentrations of M3 for 8 h followed by treatment with MitoSOX to measure the relative ROS levels.” for “probe.”

T1 sequence (P05067 672-713 limits assumed): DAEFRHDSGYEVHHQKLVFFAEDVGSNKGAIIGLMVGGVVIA

| Compound | inhibition of the formation of Aβ fibrils [1] [%] | MMP relative to control (100%) ([2]; compound 20 μM) [%] | MMP by fluorescence imaging ([2]; compound 50 μM) | MMP relative to control (100%) ([2]; compound 50 µM) [%] | mitochondrial ROS levels compared to control cells ([3]; compound 20 μM) [fold] | mitochondrial ROS levels compared to control cells ([3]; compound 50 μM) [fold] | IC50 [1] [nM] | inhibition of Aβ aggregation ([1]; 0.1 molar ratio) [%] | inhibition of Aβ aggregation ([1]; 0.2 molar ratio) [%] | inhibition of Aβ aggregation ([1]; 0.5 molar ratio) [%] | inhibition of Aβ aggregation ([1]; 1 molar ratio) [%] | inhibition of Aβ aggregation ([1]; 2 molar ratio) [%] |
| --- | --- | --- | --- | --- | --- | --- | --- | --- | --- | --- | --- | --- |
| CN(C)c1ccc2c3c(cccc13)C(=O)N(CCc1ccc(O)c(O)c1)C2=O [M1, 2-(3,4-dihydroxyphenethyl)-6-(dimethylamino)-1H-benzo[de]isoquinoline-1,3(2H)-dione] | ~95 |  |  |  |  |  |  |  |  |  |  |  |
| O=C1c2cccc3c(N(Cc4ccccn4)Cc4ccccn4)ccc(c23)C(=O)N1CCc1ccc(O)c(O)c1 [M3, 6-(bis(pyridin-2-ylmethyl)amino)-2-(3,4-dihydroxyphenethyl)-1H-benzo[de]isoquinoline-1,3(2H)-dione] | 94 | 88 | least affected | 93 | 1.6 | 1.25 | 1000 | 37 | 42 | 55 | 74 | 90 |
